# Tests used:
# [1] = system: Phakopsora pachyrhizi; test: Green house G1: protective control of soy bean rust on soy beans caused by Phakopsora pachyrhizi (Phakpa P2); format: in vivo; conditions: soy bean seedlings sprayed 2 days before inoculation, % diseased leaf area, untreated control 70
# Protocol: The spray solutions were prepared in several steps:
# The stock solution were prepared: a mixture of acetone and/or dimethylsulfoxide and the wetting agent/emulsifier Wettol, which is based on ethoxylated alkylphenoles, in a relation (volume) solvent-emulsifier of 99 to 1 was added to 25 mg of the compound to give a total of 5 ml. Water was then added to total volume of 100 ml. This stock solution was diluted with the described solvent-emulsifier-water mixture to the given concentration.
# G1. Protective control of soy bean rust on soy beans caused by Phakopsora pachyrhizi (Phakpa P2)
# Leaves of pot-grown soy bean seedlings were sprayed to run-off with an aqueous suspension, containing the concentration of active ingredient or their mixture as described below. The plants were allowed to air-dry. The trial plants were cultivated for 2 days in a greenhouse chamber at 23-27° C. and a relative humidity between 60 and 80%. Then the plants were inoculated with spores of Phakopsora pachyrhizi. To ensure the success the artificial inoculation, the plants were transferred to a humid chamber with a relative humidity of about 95% and 20 to 24° C. for 24 h. The trial plants were cultivated for fourteen days in a greenhouse chamber at 23-27° C. and a relative humidity between 60 and 80%. The extent of fungal attack on the leaves was visually assessed as % diseased leaf area.
# [2] = system: Septoria tritici; test: Green house G2: preventative control of leaf blotch on wheat caused by Septoria tritici (Septtr P7); format: in vivo; conditions: wheat seedlings sprayed 7 days before inoculation, % diseased leaf area, untreated control 70
# Protocol: The spray solutions were prepared in several steps: The stock solution were prepared: a mixture of acetone and/or dimethylsulfoxide and the wetting agent/emulsifier Wettol, which is based on ethoxylated alkylphenoles, in a relation (volume) solvent-emulsifier of 99 to 1 was added to 25 mg of the compound to give a total of 5 ml. Water was then added to total volume of 100 ml. This stock solution was diluted with the described solvent-emulsifier-water mixture to the given concentration. G2. Preventative control of leaf blotch on wheat caused by Septoria tritici (Septtr P7) Leaves of pot-grown wheat seedling were sprayed to run-off with an aqueous suspension of the active compound or their mixture, prepared as described. The plants were allowed to air-dry. Seven days later the plants were inoculated with an aqueous spore suspension of Septoria tritici. Then the trial plants were immediately transferred to a humid chamber at 18-22° C. and a relative humidity close to 100%. After 4 days the plants were transferred to a chamber with 18-22° C. and a relative humidity close to 70%. After 4 weeks the extent of fungal attack on the leaves was visually assessed as % diseased leaf area.
compound,measurement,setting,value
CCOC(Cn1cncn1)c1ccc(Oc2ccc(Cl)cc2)cc1Cl (centres unmarked) [prior art compound],Disease (%) at 16 ppm Phakpa P2,[1],70%
same,Disease (%) at 16 ppm Septtr P7,[2],50%

# Source: patent publication US20140187423A1, “Fungicidal substituted 1--1H-[1,2,4]triazole compounds” (BASF SE, priority 2011, published 2014)
